Data: patent publication US6521594B1, “Method and composition for treating thrombosis” (La Jolla Cancer Research Foundation, priority 1990, dated 2003)
Where two headings read alike, the source gives them in different places. Non-standard residues stand in square brackets, D forms with d. No end group written: not given here. *: point of attachment. Pmc = Cc1c(C)c(S(=O)(=O)*)c(C)c2c1OC(C)(C)CC2; Pen = CC(C)(S)[C@H](N)C(=O)O

Legend:
platelets [1] = molecular target: T1, platelets (Homo sapiens, UniProt P05106+P08514); experiment: Platelet aggregation assay (Examples XI.G and XII); type: cell-based; conditions: for fold increase in platelet aggregation potency on substitution of Leu in analogue 5: comparator analogue 5; for fold increase in potency over analogue 1: comparator analogue 1; for reactivity in platelet aggregation relative to 8×: comparator 8×
Protocol: (§1) Platelet aggregation was assessed using the method of Born, Nature 194:927-929 (1962), incorporated herein by reference. Briefly, the change in light transmission was measured through a stirred suspension of platelets in an aggregometer (Model 400 VS, Chrono-Log, Havertown, Pa., USA). Studies employing ADP were performed with platelet-rich plasma (PRP), which was obtained by low-speed centrifugation (200×g for 10 min.) of whole blood freshly drawn into trisodium citrate (at a final concentration of 11 mM). In studies using thrombin, the PRP was gel-filtered on Sepharose 2B in divalent ion-free Tyrode's solution containing 2% BSA. For all studies, the reference standard was platelet-poor plasma, which was obtained by centrifuging PRP at 1000×g for 5 min.
All aggregation studies were performed at 37° C. with a constantly stirred suspension of 3×10^8 platelets/mL. (Platelet count was determined with the aid of a hemacytometer.) Peptides and stimulants were added to these suspensions in 1% dilutions. The PRP and gel-filtered platelets were used within three hours from the time of blood collection.
The peptides described in this Example were synthesized according to the methods of Examples I and XI. Selectivity and potency were measured according to the methods of Examples II through XI. The peptide identification numbers used in this Example are consistent and relevant to this Example only. Some of the peptides are identified by other nomenclature elsewhere in this document.

platelets [2] = molecular target: T1, platelets; experiment: Thrombin-stimulated platelet aggregation (gel-filtered platelets); type: cell-based; conditions: thrombin 2 U/ml
Protocol: (§6) All aggregation studies were performed at 37° C. with a constantly stirred suspension of 3×10^8 platelets/ml. (Platelet count was determined with the aid of a hemacytometer.) Peptides and stimulants were added to these suspensions in 1% dilutions. The PRP and gel-filtered platelets were used within three hours from the time of blood collection.
(§7) Peptide anti-aggregation potencies were determined from dose-responsive curves for the inhibition of the maximum aggregation responses stimulated by physiologic doses of ADP (10 μm) and thrombin (2 U/ml).

platelets [3] = molecular target: T1, platelets; type: cell-based; conditions: ADP 10 μm; citrated PRP; read-out: ADP-Stimulated Aggregation (IC50)
Protocol: Briefly, the change in light transmission was measured through a stirred suspension of platelets in an aggregometer (Model 400 VS, Chrono-Log, Havertown, Pa., USA). […] In studies using thrombin, the PRP was gel-filtered on Sepharose 2B in divalent ion-free Tyrode's solution containing 2% BSA. For all studies, the reference standard was platelet-poor plasma, which was obtained by centrifuging PRP at 1000×g for 5 min.
as §6, §7

αvβ5 [4] = experiment: αvβ5 ELISA IC50 (μM)
From the text: Table printed on a drawing sheet, FIG. 17
Title: Modifications of G(Pen)[…]
(§2) Head of the field: αvβ5 ELISA IC50 (μM)
The patent's description of the figure: FIG. 17 is a Table showing the effect of modifications of Pen residue at position −3 (as defined, infra) on potency and selectivity.
First copying reader's note: Underlining in the printed sequences marks the cyclized part; the footnotes a and b are referenced but not printed on the sheet.
(§3) Where the first naming reader finds the target: head: αvβ5 ELISA IC50 (μM)

αvβ5 [5] = experiment: αvβ5 ELISA IC50 (μM); remark: listed apart in the source
From the text: Table printed on a drawing sheet, FIG. 23
Title: Modification of Ac-CNPRGD(Y-OMe)RC-NH2
as §2
First copying reader's note: Underlining in the printed sequences marks the cyclised part (C to C); the footnote for the raised a on 'Peptide' is not printed on the sheet.
as §3

platelets [6] = experiment: Ex vivo inhibition of platelet aggregation (Table IV); type: in vivo, dog; conditions: dose as listed per peptide (bolus ± infusion)
Protocol: as §1, with “Platelet aggregation assays were performed following the methods of this Example or those of Example IX.G. Platelet” for “Platelet”, “(Nature” for “Nature”, “(1962)),” for “(1962),”
(§4) Platelet counts and ex vivo aggregation studies were performed one hour before and 1, 3, and 5 hours after application of anodal direct current.
Using the method described in Example V to measure ex vivo inhibition of platelet aggregation and the method described in Example VII to measure bleeding, four additional peptides were tested. These peptides included 11J, 11Q, 11K and 11V.

αvβ5 [7] = experiment: αvβ5 ELISA IC50 (μM); remark: listed apart in the source
From the text: Table printed on a drawing sheet, FIG. 19
Title: Modifications of R(Pmc)GHRGD(Y-OMe)RCR
as §2
First copying reader's note: The part of each sequence from (Pmc) through C is underlined on the sheet, and the footnotes a,b cited in the head are not printed on it.
as §3

αvβ5 [8] = experiment: αvβ5 ELISA IC50 (μM); remark: listed apart in the source
From the text: Table printed on a drawing sheet, FIG. 22
Title: Modifications of Ac-CNPRGD(Y-OMe)RC-NH2
as §2
First copying reader's note: Underlining in the printed sequences marks the cyclic part; the footnote for the raised a at 'Peptide' is not printed on the sheet, and the D in D-Pen is printed as a small capital.
as §3

coronary thrombosis = experiment: Electrically induced canine coronary thrombosis (time to full occlusion); type: in vivo, dog
Protocol: Male mongrel dogs weighing 14 to 20 kg were selected based on proper aggregation of their platelets in response to arachidonic acid, collagen, and adenosine disphosphate (ADP) and based on similar weights and hemodynamic properties.
Before surgery, the animals were anesthetized with sodium pentobarbital (30 mg/kg, i.v.) and then intubated and ventilated on room air with positive pressure using a respirator (Harvard Apparatus, S. Natick, Mass.) at a volume of 30 ml/kg and a frequency of 12 breaths/min. Surgery, performed under aseptic conditions, was begun with the placement of cannulae into the left carotid artery and jugular vein for monitoring arterial blood pressure (Statham P23 pressure transducer, Gould, Inc., Cardiovascular Products, Oxnard, Calif.) and administering intravenous fluids.
The heart was exposed via a left thoracotomy through the 5th intercostal space. A 2-cm segment of the left circumflex coronary artery (LCCA) was isolated from surrounding tissue by blunt dissection. […] The intra-coronary electrode was constructed by attaching a 25-gauge hypodermic needle tip to a 30-gauge Teflon-insulated silver-coated copper wire. The mechanical occluder was constructed of stainless steel in a C shape with a Teflon screw (2 mm diameter) on top. It was adjusted to control vessel circumference and decrease the reactive hyperemic flow due to a 10-sec (full) occlusion by 50-70% without affecting basal coronary blood flow (FIG. 1). A monopolar epicardial electrode was sutured to the surface of the ventricle in the region of LCCA distribution to monitor ischemic changes in the electrocardiogram (ECG). The left atrium was cannulated with polythylene tubing for administration of the peptide. Continuous recordings of blood pressure, limb lead II ECG, epicardial electrogram, and mean and phasic LCCA blood flow were obtained on a Model 7 polygraph (Grass Instrument Co., Quincy, Mass.).
One hour after the completion of surgery, a 100 micro-amp continuous anodal direct current delivered from a 9 volt nickel-cadmium battery was applied to the intimal surface of the LCCA. The anode of the battery was in series with a 250,000 ohm potentiometer and the intraluminal coronary artery electrode. The electric circuit was completed by placing the cathode in a subcutaneous site. Electrical stimulation was applied for three hours. At the conclusion of each experiment, the heart was fibrillated electrically and quickly removed, and the LCCA was dissected free as far as possible to verify the position of the implanted anodal electrode.
(§5) Animals were randomly assigned to two treatment groups: vehicle control (i.e., normal saline) or RGD peptides at various concentrations. Peptides were administered intra-atrially in both bolus and continuous injections. Each bolus injection consisted of 0.5 to 10 mg/kg and was administered 15 minutes before application of the current. A continuous infusion of the same peptide was then started immediately after completion of this initial injection. Animals received a 25 μg/kg/min to 200 μg/kg/min infusion. The anti-thrombotic effects of the peptides were monitored until 30 minutes after the occurrence of a persistent, occlusive thrombus or five hours after the initiation of electrical stimulation (whichever resulted first). If an occlusive thrombus had not developed within four hours after the initiation of current, the peptide infusion was stopped.
Coronary thrombosis was quantified as the time to full occlusion. The effects of the various peptide treatments on coronary thrombosis is illustrated in FIG. 4.

platelets [9] = experiment: Ex vivo platelet aggregation in the canine coronary thrombosis study; set-up: species or system dog; conditions: 10 mg/kg injection
Protocol: For all ex vivo studies (see FIG. 3), control aggregation values were standardized to the percentages of light transmission observed in PRP and PPP samples (0% and 100%, respectively).
as §5, §4
Platelet aggregation was also determined ex vivo at one, three, and five hours after current application. For these studies, arachidonic acid, or collagen was again used to stimulate the platelets.

T1 sequence (P08514 32-1039): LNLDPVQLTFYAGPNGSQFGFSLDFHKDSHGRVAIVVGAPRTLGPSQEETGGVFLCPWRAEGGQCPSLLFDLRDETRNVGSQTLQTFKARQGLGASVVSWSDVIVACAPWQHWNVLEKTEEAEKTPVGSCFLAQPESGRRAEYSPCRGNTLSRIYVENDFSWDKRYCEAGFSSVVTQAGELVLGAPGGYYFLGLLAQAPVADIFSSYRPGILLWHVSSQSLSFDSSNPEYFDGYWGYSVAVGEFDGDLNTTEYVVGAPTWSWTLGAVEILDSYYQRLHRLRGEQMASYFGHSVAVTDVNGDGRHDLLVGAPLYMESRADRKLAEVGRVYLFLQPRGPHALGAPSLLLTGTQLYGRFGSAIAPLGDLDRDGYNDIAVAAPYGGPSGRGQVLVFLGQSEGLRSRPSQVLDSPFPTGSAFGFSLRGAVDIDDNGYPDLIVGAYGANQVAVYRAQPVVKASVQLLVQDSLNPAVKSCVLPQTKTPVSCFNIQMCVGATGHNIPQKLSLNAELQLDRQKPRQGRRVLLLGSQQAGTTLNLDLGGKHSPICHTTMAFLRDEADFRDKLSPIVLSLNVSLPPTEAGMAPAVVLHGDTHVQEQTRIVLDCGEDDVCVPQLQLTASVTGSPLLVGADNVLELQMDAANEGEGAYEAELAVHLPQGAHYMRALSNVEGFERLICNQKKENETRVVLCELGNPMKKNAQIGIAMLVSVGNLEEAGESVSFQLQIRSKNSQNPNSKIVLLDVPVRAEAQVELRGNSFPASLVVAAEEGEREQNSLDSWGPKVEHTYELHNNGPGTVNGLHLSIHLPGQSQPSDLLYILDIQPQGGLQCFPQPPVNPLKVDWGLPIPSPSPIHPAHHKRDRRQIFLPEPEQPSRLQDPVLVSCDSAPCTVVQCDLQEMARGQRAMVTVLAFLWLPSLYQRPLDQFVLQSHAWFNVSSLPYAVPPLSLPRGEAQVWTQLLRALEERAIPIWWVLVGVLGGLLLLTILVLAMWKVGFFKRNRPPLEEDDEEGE
T1 sequence (P05106 27-788): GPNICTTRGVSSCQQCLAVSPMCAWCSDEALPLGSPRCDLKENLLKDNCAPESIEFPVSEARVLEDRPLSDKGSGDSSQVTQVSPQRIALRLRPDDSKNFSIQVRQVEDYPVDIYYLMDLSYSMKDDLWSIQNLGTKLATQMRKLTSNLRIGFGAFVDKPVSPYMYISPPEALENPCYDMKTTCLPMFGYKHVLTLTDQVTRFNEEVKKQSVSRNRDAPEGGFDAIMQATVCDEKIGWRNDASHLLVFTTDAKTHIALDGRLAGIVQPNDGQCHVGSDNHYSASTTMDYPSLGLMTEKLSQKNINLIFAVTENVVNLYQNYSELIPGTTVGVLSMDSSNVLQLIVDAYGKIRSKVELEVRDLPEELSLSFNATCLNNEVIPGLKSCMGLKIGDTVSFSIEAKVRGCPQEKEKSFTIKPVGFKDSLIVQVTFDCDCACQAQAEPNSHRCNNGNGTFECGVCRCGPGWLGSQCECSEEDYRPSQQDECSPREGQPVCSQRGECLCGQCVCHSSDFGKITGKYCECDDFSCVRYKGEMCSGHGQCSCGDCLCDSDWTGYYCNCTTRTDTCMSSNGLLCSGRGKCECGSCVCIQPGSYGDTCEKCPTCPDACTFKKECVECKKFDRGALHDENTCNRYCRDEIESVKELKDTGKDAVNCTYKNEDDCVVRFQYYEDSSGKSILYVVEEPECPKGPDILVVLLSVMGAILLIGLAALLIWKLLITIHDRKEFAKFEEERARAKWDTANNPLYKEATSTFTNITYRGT

Substance: Ac-CNPRGD(Y-OMe)KC-NH2 [11R] [listing 1 of 2 here]
- retained inhibitory activity versus analogue 32 (platelets [1]; comparator analogue 32): 20%

Substance: G(Pen)GHRGDTRCA
- IC50 (platelets [2]): 17 µM
- IC50 (platelets [3]): 11.3 µM

Substance: R(Tmc)GHRGDLRCR [analogue 7] [listing 1 of 2 here]
- fold more potent than analogue 3 in the aggregation assay (platelets [1]; comparator analogue 3): 2 fold

Substance: G(Pen)LRGDSPCA
- IC50 (platelets [2]): 308 µM
- IC50 (platelets [3]): 415 µM

Substance: G(Pen)FRGDSFCA
- IC50 (platelets [3]): < 200 µM

Substance: R(Tmc)GHRGDLRCR [analogue 7] [listing 2 of 2 here]
- IC50 (αvβ5 [4]): 0.34 µM

Substance: Ac-CNPRGD(Y-OMe)EC-NH2 [11J]
- IC50 (αvβ5 [5]): 9.47 µM

Substance: R(Pmc)GHRGDLRCR [analogue 5]
- IC50 (αvβ5 [4]): 1.58 µM

Substance: Ac-CNPRGD(Y-OMe)(Nle)C-NH2 [11V]
- ex vivo inhibition platelet aggregation (platelets [6]): >98%

Substance: R(Pmc)IHRGD(Y-OMe)RCR [compound 20]
- IC50 (αvβ5 [7]): 9.9 µM

Substance: GNPRGD(O-Me-Y)RD-NH2 [20Q]
- potency relative to 17J (platelets [1]; comparator 17J): about three times
- potency relative to 18J (platelets [1]; comparator 18J): about 20 times

Substance: R2(Pen)GRGDTPCA
- IC50 (platelets [2]): 2.7 µM
- IC50 (platelets [3]): 8.2 µM

Substance: AcCIPRGDY-OMeRCNH2 [10R]
- fold increase in platelet aggregation potency versus analogue 26 (platelets [1]; comparator analogue 26): 3-4 fold

Substance: R(Pmc)GHRGDVRCR
- fold increase in platelet aggregation potency on substitution of Leu in analogue 5 (platelets [1]): 4 fold
- IC50 (platelets [3]): 0.69 µM

Substance: R(Pen)GRGDTPCR
- IC50 (platelets [2]): 2 µM

Substance: (Pmp)NPRGD(Y-OMe)RC-NH2 [compound 38]
- IC50 (αvβ5 [8]): 4.9 µM

Substance: G[Pen]GRGDSFCA (cysteine pairing not given here)
- IC50 (platelets [3]): 115 µM

Substance: R(Pen)GRGDWPCR [4R]
- IC50 (platelets [2]): 0.53 µM
- coronary thrombosis: time to full occlusion (coronary thrombosis; 3 mg/kg): ineffective
- coronary thrombosis: time to full occlusion (coronary thrombosis; 10 mg/kg): prevented occlusion throughout the duration of the study
- ex vivo platelet aggregation by ADP, AA and collagen (platelets [9]): unresponsive to all modes of stimulation at all time points

Substance: L(Pen)GHRGDLRCA
- IC50 (platelets [3]): 10.5 µM

Substance: Ac-CNPRGD(O-N-Butyl-Y)RC-NH2 [analogue 34]
- fold increase in potency over analogue 1 (platelets [1]): about 150 fold

Substance: R(D-Pen)GHRGDLRCR [analogue 4]
- IC50 (αvβ5 [4]): 10 µM

Substance: Ac-(D-Pen)NPRGD(Y-OMe)RC-NH2 [compound 36]
- IC50 (αvβ5 [8]): 6.7 µM

Substance: R(Pmc)GHRGDFRCR
- fold increase in platelet aggregation potency on substitution of Leu in analogue 5 (platelets [1]): ~5 fold
- IC50 (platelets [3]): 0.62 µM

Substance: G(Pen)LRGDSRCA
- IC50 (platelets [2]): 49 µM
- IC50 (platelets [3]): 41 µM

Substance: G(Pen)GHRGDLRCA [2G]
- IC50 (αvβ5 [4]): 8.26 µM

Substance: R(Pmc)RHRGD(Y-OMe)RCR [compound 22]
- IC50 (αvβ5 [7]): 6.2 µM

Substance: (t-but-am-Pmp)GHRGDLR(Pen)A
- IC50 (platelets [3]): 89 µM

Substance: Ac-CNPRGD(Y-OMe)KC-NH2 [11R] [listing 2 of 2 here]
- IC50 (αvβ5 [5]): 5.82 µM

Substance: (Pmp)GHRGDLRCA
- fold increase in potency over analogue 1 (platelets [1]): 2 fold

Substance: (Mpr)NPRGD(Y-OMe)RC-NH2 [compound 39]
- IC50 (αvβ5 [8]): 3 µM

Substance: G(Pen)LRGDTPCA
- IC50 (platelets [3]): 86 µM

Substance: Ac-CNPRGD(Y-OMe)(dR)C-NH2 [11L]
- platelet aggregation potency compared with analogue 32 (platelets [1]; comparator analogue 32): decrease in potency

Substance: (Mpr)RGD(O-Me-Y)RC-NH2 [16A]
- reactivity in platelet aggregation relative to 8× (platelets [1]): about two-fold

Substance: Ac-CNPRGD(Y-OMe)(Cit)C-NH2 [11S]
- IC50 (αvβ5 [5]): 3.46 µM

Substance: RGD(O-Me-Y)RE-NH2 [21I]
- reactivity in platelet aggregation relative to 8× (platelets [1]): about three-fold

Substance: Ac-CNPKGD(Y-OMe)RC-NH2 [11Q]
- ex vivo inhibition platelet aggregation (platelets [6]): >95%

Substance: G(D-Pen)GHRGDLRCA [compound 2]
- IC50 (αvβ5 [4]): 5.27 µM

Substance: R(Pmc)SHRGD(Y-OMe)RCR [compound 19]
- IC50 (αvβ5 [7]): 6.6 µM

Substance: R(Pmc)DHRGD(Y-OMe)RCR [compound 18]
- IC50 (αvβ5 [7]): 7.2 µM

Substance: Ac-CNPRGD(Y-OMe)AC-NH2 [11K]
- IC50 (αvβ5 [5]): 8.85 µM

Substance: G(Pen)GRGDRPCA
- IC50 (platelets [3]): 22.3 µM

Substance: Ac-(Pmc)NPRGD(Y-OMe)RC-NH2 [compound 37]
- IC50 (αvβ5 [8]): 2.34 µM

Substance: Ac-CNPRGD(Y-OMe)OC-NH2 [11P]
- IC50 (αvβ5 [5]): 7.7 µM

Substance: R(Pen)GRGDTPCA
- IC50 (platelets [3]): 7 µM

Substance: G(Pen)GRGDTPCA
- IC50 (platelets [3]): 22.3 µM

Substance: R(Pmc)GHRGDYRCR
- IC50 (platelets [3]): 1 µM

Substance: Ac-CNPRGD(Y-OMe)LC-NH2 [compound 47]
- IC50 (αvβ5 [5]): 7.14 µM
